Experimental data published in patent US20240270821A1, “GIP/GLP1/GCG TRI-RECEPTOR AGONISTS AND USES THEREOF” (priority 2023, published 2024).
Where two headings read alike, the source gives them in different places. Starred links: 1 amine or outer side, 2 acyl side, 3 side chain; linkers in the order of their positions; H or OH if unused. Non-standard residues stand in square brackets, D forms with d. Residues, ends and D or L forms follow the SMILES beside them. Groups on a side chain read outwards from the residue. *: point of attachment. C18 diacid = O=C(O)CCCCCCCCCCCCCCCCC(=O)*; αMePhe(2-F) = C[C@](N)(Cc1ccccc1F)C(=O)O; γGlu = O=C(O)[C@H](CCC(=O)[*:2])N[*:1]; αMe4Pal = C[C@](N)(Cc1ccncc1)C(=O)O; αMeY = C[C@](N)(Cc1ccc(O)cc1)C(=O)O; 4Pal = N[C@@H](Cc1ccncc1)C(=O)O; αMeL = CC(C)C[C@](C)(N)C(=O)O; αMeS = C[C@](N)(CO)C(=O)O; Orn = NCCC[C@H](N)C(=O)O; AEEA = NCCOCCOCC(=O)O; Aib = CC(C)(N)C(=O)O

Legend:
Format in all cases: cell-based
hGIPR [1] = target: T1, hGIPR (Homo sapiens, UniProt P48546); assay: Functional cAMP activity in the presence of 1% HSA; conditions: read-out: cAMP Rel EC50, hGIPR
T1 sequence (P48546 22-466): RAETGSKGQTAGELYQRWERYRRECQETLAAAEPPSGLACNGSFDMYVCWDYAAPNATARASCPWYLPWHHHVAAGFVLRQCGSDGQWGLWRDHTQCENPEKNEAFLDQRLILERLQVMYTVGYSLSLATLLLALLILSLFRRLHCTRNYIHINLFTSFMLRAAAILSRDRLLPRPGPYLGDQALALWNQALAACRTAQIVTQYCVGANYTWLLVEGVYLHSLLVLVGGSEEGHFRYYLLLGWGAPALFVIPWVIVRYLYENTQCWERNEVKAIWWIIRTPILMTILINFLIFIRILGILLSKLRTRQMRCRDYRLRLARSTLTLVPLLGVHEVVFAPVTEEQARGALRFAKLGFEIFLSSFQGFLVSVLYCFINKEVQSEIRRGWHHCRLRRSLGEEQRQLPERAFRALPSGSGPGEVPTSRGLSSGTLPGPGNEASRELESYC

hGcgR = hGcgR (Homo sapiens, UniProt P47871); assay: Functional cAMP activation in the presence of 0.1% casein (no HSA); conditions: read-out: Relative cAMP EC50, hGcgR;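 further: intracellular cAMP rise after 30 min at 37 °C, read by HTRF against a cAMP standard curve, scaled from buffer only (0%) to maximal control ligand response (100%)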
human GcgR = human GcgR (Homo sapiens, UniProt P47871); assay: Functional cAMP activity in the presence of 1% HSA; conditions: read-out: cAMP Rel EC50, hGcgR
hGIPR [2] = target: T1, hGIPR; assay: Functional cAMP activation in the presence of 0.1% casein (no HSA); conditions: read-out: Relative cAMP EC50, hGIPR;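 on Relative cAMP EC50, hGIPR: intracellular cAMP rise after 30 min at 37 °C read by HTRF against a standard curve, scaled between buffer alone (0%) and top control ligand concentration (100%), four-parameter fit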;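 on Relative cAMP EC50, hGLP-1R: intracellular cAMP rise after 30 min at 37 °C read by HTRF, normalized between buffer only (0%) and maximal control ligand (100%), four-parameter variable-slope fit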
hGLP-1R [3] = target: T2, hGLP-1R (Homo sapiens, UniProt P43220); assay: as above; conditions: read-out: Relative cAMP EC50, hGLP-1R;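 further: intracellular cAMP rise after 30 min at 37 °C read by HTRF, normalized between buffer only (0%) and maximal control ligand (100%), four-parameter variable-slope fit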
hGLP-1R [4] = target: T2, hGLP-1R; assay: Functional cAMP activity in the presence of 1% HSA; conditions: read-out: cAMP Rel EC50, hGLP-1R
[5] = in the presence of 0.1% casein (no HSA), geometric mean
[6] = 0.1% casein, no HSA, geometric mean

T2 sequence (P43220 24-463): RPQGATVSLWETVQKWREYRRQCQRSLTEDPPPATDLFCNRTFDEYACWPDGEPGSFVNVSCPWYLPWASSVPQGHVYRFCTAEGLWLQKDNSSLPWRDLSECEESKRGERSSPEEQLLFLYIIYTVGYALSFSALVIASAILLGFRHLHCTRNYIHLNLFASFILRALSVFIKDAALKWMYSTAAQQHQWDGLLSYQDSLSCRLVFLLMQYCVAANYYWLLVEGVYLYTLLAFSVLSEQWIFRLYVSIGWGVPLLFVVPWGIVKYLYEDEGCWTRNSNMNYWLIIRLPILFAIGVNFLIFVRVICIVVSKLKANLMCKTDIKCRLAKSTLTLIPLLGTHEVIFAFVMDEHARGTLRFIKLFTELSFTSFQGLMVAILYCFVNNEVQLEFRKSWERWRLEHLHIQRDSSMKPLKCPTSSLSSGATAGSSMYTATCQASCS
hGcgR, sequence (P47871 26-477): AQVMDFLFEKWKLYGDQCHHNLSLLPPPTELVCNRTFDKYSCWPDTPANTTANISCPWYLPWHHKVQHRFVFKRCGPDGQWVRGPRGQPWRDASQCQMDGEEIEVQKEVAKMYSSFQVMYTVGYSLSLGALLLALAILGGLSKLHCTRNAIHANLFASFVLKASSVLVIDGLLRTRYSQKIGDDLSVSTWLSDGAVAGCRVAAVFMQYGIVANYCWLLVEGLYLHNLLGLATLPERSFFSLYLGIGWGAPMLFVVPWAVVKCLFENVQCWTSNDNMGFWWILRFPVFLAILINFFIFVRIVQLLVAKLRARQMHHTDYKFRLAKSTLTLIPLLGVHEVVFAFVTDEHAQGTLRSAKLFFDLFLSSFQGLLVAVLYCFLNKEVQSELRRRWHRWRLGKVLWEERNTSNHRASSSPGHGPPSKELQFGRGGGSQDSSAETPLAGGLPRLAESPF
human GcgR, sequence (P47871 26-477): as above

Row | Compound | EC50 (hGcgR) [nM] | EC50 (hGIPR [2]) [nM] | EC50 (hGLP-1R [3]) [nM] | EC50 (hGIPR [1]) [nM] | EC50 (human GcgR) [nM] | EC50 (hGLP-1R [4]) [nM] | EC50 (hGcgR; [5]) [nM] | EC50 (hGIPR [2]; [5]) [nM] | EC50 (hGLP-1R [3]; [5]) [nM] | EC50 (hGcgR; [6]) [nM] | EC50 (hGIPR [2]; [6]) [nM] | EC50 (hGLP-1R [3]; [6]) [nM]
1 | H-Y[Aib]QGT[αMePhe(2-F)]TSD[4Pal][αMeS]I[αMeL]LD[Orn]K([AEEA-γGlu-C18 diacid])AQ[αMe4Pal]EFI[dE][αMeY]LVEGGPSSGAPPPSGSE-NH2 [Example 751] | 1.9 | 0.00759 | 0.302 | 1.27 | 267 | 32.3 |  |  |  |  |  | 
2 | CC[C@H](C)[C@H](NC(=O)[C@H](Cc1ccccc1)NC(=O)[C@H](CCCN)NC(=O)C(C)(C)NC(=O)[C@H](CCC(N)=O)NC(=O)[C@H](C)NC(=O)[C@H](CCCCNC(=O)COCCOCCNC(=O)CC[C@H](NC(=O)CCCCCCCCCCCCCCCCC(=O)O)C(=O)O)NC(=O)[C@H](CCCN)NC(=O)[C@H](CC(=O)O)NC(=O)[C@H](CC(C)C)NC(=O)[C@](C)(CC(C)C)NC(=O)[C@@H](NC(=O)[C@](C)(CO)NC(=O)[C@H](Cc1ccncc1)NC(=O)[C@H](CC(=O)O)NC(=O)[C@H](CO)NC(=O)[C@@H](NC(=O)[C@](C)(Cc1ccccc1F)NC(=O)[C@@H](NC(=O)CNC(=O)[C@H](CCC(N)=O)NC(=O)C(C)(C)NC(=O)[C@@H](N)Cc1ccc(O)cc1)[C@@H](C)O)[C@@H](C)O)[C@@H](C)CC)C(=O)N[C@H](CCC(=O)O)C(=O)N[C@@](C)(Cc1ccc(O)cc1)C(=O)N[C@@H](CC(C)C)C(=O)N[C@@H](CC(C)C)C(=O)N[C@@H](CCC(=O)O)C(=O)NCC(=O)NCC(=O)N1CCC[C@H]1C(=O)N[C@@H](CO)C(=O)N[C@@H](CO)C(=O)NCC(=O)N[C@@H](CCC(=O)O)C(=O)N1CCC[C@H]1C(=O)N1CCC[C@H]1C(=O)N1CCC[C@H]1C(=O)N[C@@H](CCC(=O)O)C(N)=O [Example 377] (H-Y[Aib]QGT[αMePhe(2-F)]TSD[4Pal][αMeS]I[αMeL]LD[Orn]K([AEEA-γGlu-C18 diacid])AQ[Aib][Orn]FI[dE][αMeY]LLEGGPSSGEPPPE-NH2) |  |  |  | 11.1 | 163 | 29.4 | 1.36 | 0.0377 | 0.367 |  |  | 
3 | CC[C@H](C)[C@H](NC(=O)[C@H](Cc1ccccc1)NC(=O)C(C)(C)NC(=O)C(C)(C)NC(=O)[C@H](CCC(N)=O)NC(=O)[C@H](C)NC(=O)[C@H](CCCCNC(=O)COCCOCCNC(=O)CC[C@H](NC(=O)CCCCCCCCCCCCCCCCCCC(=O)O)C(=O)O)NC(=O)[C@H](CCCN)NC(=O)[C@H](CC(=O)O)NC(=O)[C@H](CC(C)C)NC(=O)[C@](C)(CC(C)C)NC(=O)[C@@H](NC(=O)[C@H](CO)NC(=O)[C@H](Cc1ccncc1)NC(=O)[C@H](CC(=O)O)NC(=O)[C@H](CO)NC(=O)[C@@H](NC(=O)[C@](C)(Cc1ccccc1F)NC(=O)[C@@H](NC(=O)CNC(=O)[C@H](CCC(N)=O)NC(=O)C(C)(C)NC(=O)[C@@H](N)Cc1ccc(O)cc1)[C@@H](C)O)[C@@H](C)O)[C@@H](C)CC)C(=O)N[C@H](CCC(=O)O)C(=O)N[C@@](C)(Cc1ccc(O)cc1)C(=O)N[C@@H](CC(C)C)C(=O)N[C@@H](CC(C)C)C(=O)N[C@@H](CCC(=O)O)C(=O)NCC(=O)NCC(=O)N1CCC[C@H]1C(=O)N[C@@H](CO)C(=O)N[C@@H](CO)C(=O)NCC(=O)N[C@@H](CCC(=O)O)C(=O)N1CCC[C@H]1C(=O)N1CCC[C@H]1C(=O)N1CCC[C@H]1C(=O)N[C@@H](CO)C(N)=O [Example 366] |  |  |  | 4.27 | 1830 | 85.9 | 4.51 | 0.024 | 0.744 |  |  | 
4 | H-Y[Aib]QGT[αMePhe(2-F)]TSD[4Pal][αMeS]I[αMeL]LD[Orn]K([γGlu-γGlu-C18 diacid])AQ[αMe4Pal]EFI[dE][αMeY]LIEGGPSSGAPPPSGGGEEE-NH2 [Example 1219] |  |  |  | 0.629 | 168 | 46.8 |  |  |  | 1.64 | 0.0101 | 0.624

More lines, main results first:

Row | EC50 (hGcgR) [nM] | EC50 (hGIPR [2]) [nM] | EC50 (hGLP-1R [3]) [nM] | Compound | EC50 (hGIPR [1]) [nM] | EC50 (human GcgR) [nM] | EC50 (hGLP-1R [4]) [nM] | EC50 (hGcgR; [5]) [nM] | EC50 (hGIPR [2]; [5]) [nM] | EC50 (hGLP-1R [3]; [5]) [nM] | EC50 (hGcgR; [6]) [nM] | EC50 (hGIPR [2]; [6]) [nM] | EC50 (hGLP-1R [3]; [6]) [nM]
5 | 6.99 | 0.0386 | 0.446 | H-Y[Aib]QGT[αMePhe(2-F)]TSD[4Pal][αMeS]I[αMeL]LD[Orn]K([γGlu-γGlu-C18 diacid])AQ[Aib]NFI[dE][αMeY]LQEGGPSSGEPPPEGTGE-NH2 [Example 527] | 2.6 | 580 | 26.8 |  |  |  |  |  | 
6 | 1.49 | 0.0362 | 0.259 | CC[C@H](C)[C@H](NC(=O)[C@H](Cc1ccccc1)NC(=O)[C@H](C)NC(=O)C(C)(C)NC(=O)[C@H](CCC(N)=O)NC(=O)[C@H](C)NC(=O)[C@H](CCCCNC(=O)COCCOCCNC(=O)CC[C@H](NC(=O)CCCCCCCCCCCCCCCCC(=O)O)C(=O)O)NC(=O)[C@H](CCCCN)NC(=O)[C@H](CC(=O)O)NC(=O)[C@H](CC(C)C)NC(=O)[C@H](CC(C)C)NC(=O)[C@@H](NC(=O)[C@H](CO)NC(=O)[C@H](Cc1ccc(O)cc1)NC(=O)[C@H](CC(=O)O)NC(=O)[C@H](CO)NC(=O)[C@@H](NC(=O)[C@](C)(Cc1ccccc1F)NC(=O)[C@@H](NC(=O)CNC(=O)[C@H](CCC(N)=O)NC(=O)C(C)(C)NC(=O)[C@@H](N)Cc1ccc(O)cc1)[C@@H](C)O)[C@@H](C)O)[C@@H](C)CC)C(=O)N[C@@H](CCC(=O)O)C(=O)N[C@@H](Cc1ccc(O)cc1)C(=O)N[C@@H](CC(C)C)C(=O)N[C@@H](CCC(=O)O)C(=O)N[C@@H](CCC(=O)O)C(=O)NCC(=O)NCC(=O)N1CCC[C@H]1C(=O)N[C@@H](CO)C(=O)N[C@@H](CO)C(=O)NCC(=O)N[C@@H](CCC(=O)O)C(=O)N1CCC[C@H]1C(=O)N1CCC[C@H]1C(=O)N1CCC[C@H]1C(=O)N[C@@H](CO)C(N)=O [Example 407] | 11.7 | 485 | 37.2 |  |  |  |  |  | 
